Results from the NIST ThermoML archive (doi:10.1016/j.jct.2008.06.003).
Numbers after ± are expanded uncertainties.

What was measured:
[1] = Crystal; for molar enthalpy of sublimation: 298.15 K, Static calorimetry
[2] = Molar enthalpy of transition or fusion; conditions: Crystal; DSC

molar enthalpy of sublimation [1] [kJ/mol]	Molar enthalpy of transition or fusion [2] [kJ/mol]	Normal melting temperature ([1]; DTA) [°C]	Compound
118 ± 4.2			O=C(O)C1COc2ccccc2O1 (centres undefined) [1,4-benzodioxan-2-carboxylic acid]
107 ± 1.7	28.8 ± 0.63	89.2 ± 0.53	OCC1COc2ccccc2O1 (centres undefined) [1,4-benzodioxane-2-methanol]
